Test results taken from patent EP3138561A1 (priority 2014, dated 2015).
Read-outs that look alike come from different tables or passages of the source.

What was measured:
[1] = tested on: Burkholderia ambifaria; assay type: cell-based
[2] = tested on: Burkholderia vietnamiensis; assay type: cell-based
[3] = tested on: Burkholderia cepacia; assay type: cell-based
[4] = tested on: Burkholderia mallei; assay type: cell-based
[5] = tested on: Burkholderia gladioli; assay type: cell-based
[6] = tested on: Burkholderia pseudomallei; assay type: cell-based
[7] = tested on: Burkholderia multivorans; assay type: cell-based
[8] = tested on: Burkholderia pyrrocinia; assay type: cell-based
[9] = tested on: Burkholderia anthina; assay type: cell-based
[10] = tested on: Burkholderia cenocepacia; assay type: cell-based
[11] = tested on: Burkholderia stabilis; assay type: cell-based
[12] = tested on: Burkholderia dolosa; assay type: cell-based
[13] = tested on: Burkholderia cepacia; settings: 0.02% solution
[14] = tested on: Pseudomonas aeruginosa; settings: all three groups of patients; day 10 of therapy
[15] = white crystalline powder; cited from earlier work
[16] = tested on: bacteria of the Burkholderia genus; assay type: cell-based; settings: all species of bacteria of the Burkholderia genus

N=C(NCCCCCCNC(=N)NC(=N)Nc1ccc(Cl)cc1)NC(=N)Nc1ccc(Cl)cc1 [chlorhexidine bigluconate]
+: activity ([1]; Concentration 0,2%) | activity ([1]; Concentration 0.1%) | activity ([2]; Concentration 0,2%) | activity ([2]; Concentration 0.05%) | activity ([2]; Concentration 0.1%) | activity ([3]; Concentration 0,2%) | activity ([3]; Concentration 0.1%) | activity ([4]; Concentration 0,2%) | activity ([4]; Concentration 0.1%) | activity ([5]; Concentration 0.02%) | activity ([5]; Concentration 0.05%) | activity ([5]; Concentration 0.1%) | activity ([6]; Concentration 0,2%) | activity ([6]; Concentration 0.1%) | activity ([7]; Concentration 0.02%) | activity ([7]; Concentration 0.05%) | activity ([8]; Concentration 0,2%) | activity ([8]; Concentration 0.1%) | activity ([9]; Concentration 0,2%) | activity ([9]; Concentration 0.1%) | activity ([10]; Concentration 0,2%) | activity ([10]; Concentration 0.02%) | activity ([10]; Concentration 0.05%) | activity ([10]; Concentration 0.1%) | activity ([11]; Concentration 0,2%) | activity ([11]; Concentration 0.02%) | activity ([11]; Concentration 0.05%) | activity ([11]; Concentration 0.1%) | activity ([12]; Concentration 0.02%) | activity ([12]; Concentration 0.05%)
++: activity ([5]; Concentration 0,2%) | activity ([7]; Concentration 0,2%) | activity ([7]; Concentration 0.1%) | activity ([12]; Concentration 0,2%) | activity ([12]; Concentration 0.1%)
-: activity ([1]; Concentration 0.02%) | activity ([1]; Concentration 0.05%) | activity ([2]; Concentration 0.02%) | activity ([3]; Concentration 0.02%) | activity ([3]; Concentration 0.05%) | activity ([4]; Concentration 0.02%) | activity ([4]; Concentration 0.05%) | activity ([6]; Concentration 0.02%) | activity ([6]; Concentration 0.05%) | activity ([8]; Concentration 0.02%) | activity ([8]; Concentration 0.05%) | activity ([9]; Concentration 0.02%) | activity ([9]; Concentration 0.05%)

CC1CCC(C(C)C)C(OC(=O)C[N+](C)(C)CCCCCCCCCC[N+](C)(C)CC(=O)OC2CC(C)CCC2C(C)C)C1 (stereo not drawn) [decamethoxine, 1,10-decamethylene-bis(N,N-dimethyl-menthoxycarbonylmethyl)ammonium dichloride]
+: activity ([1]; Concentration 0.02%) | activity ([2]; Concentration 0.02%) | activity ([3]; Concentration 0.02%) | activity ([4]; Concentration 0.02%) | activity ([5]; Concentration 0.02%) | activity ([6]; Concentration 0.02%) | activity ([7]; Concentration 0.02%) | activity ([8]; Concentration 0.02%) | activity ([9]; Concentration 0.02%) | activity ([10]; Concentration 0.02%) | activity ([11]; Concentration 0.02%) | activity ([12]; Concentration 0.02%)
exhibits bactericidal activity: bactericidal activity [16]
7 days: Mean therapy time ([13]; ultrasonic inhalations)
Good tolerance: tolerance to the therapy ([13]; ultrasonic inhalations, all patients)
14%: patients complaining of moderate cough ([13]; ultrasonic inhalations, days 7-10)
30%: patients in whom dyspnea persisted ([13]; ultrasonic inhalations, days 3-5, characterized as "insignificant")
++: activity ([1]; Concentration 0.05%) | activity ([2]; Concentration 0.05%) | activity ([3]; Concentration 0.05%) | activity ([4]; Concentration 0.05%) | activity ([5]; Concentration 0.05%) | activity ([6]; Concentration 0.05%) | activity ([7]; Concentration 0.05%) | activity ([8]; Concentration 0.05%) | activity ([9]; Concentration 0.05%) | activity ([10]; Concentration 0.05%) | activity ([11]; Concentration 0.05%) | activity ([12]; Concentration 0.05%)
75%: patients with body temperature normalized ([13]; ultrasonic inhalations 5-20 ml 1-2 times daily, days 3-5) | patients with persistent cough ([13]; ultrasonic inhalations, days 3-5, character changed from "strong" to "moderate" or "weak")
readily soluble in water: solubility in water [15]
No patients had negative side effects: negative side effects making withdrawal necessary ([13]; ultrasonic inhalations)
the patients were cured: clinical outcome (clinical, laboratory and functional indices) [14]
+++: activity ([1]; Concentration 0,2%) | activity ([1]; Concentration 0.1%) | activity ([2]; Concentration 0,2%) | activity ([2]; Concentration 0.1%) | activity ([3]; Concentration 0,2%) | activity ([3]; Concentration 0.1%) | activity ([4]; Concentration 0,2%) | activity ([4]; Concentration 0.1%) | activity ([5]; Concentration 0,2%) | activity ([5]; Concentration 0.1%) | activity ([6]; Concentration 0,2%) | activity ([6]; Concentration 0.1%) | activity ([7]; Concentration 0,2%) | activity ([7]; Concentration 0.1%) | activity ([8]; Concentration 0,2%) | activity ([8]; Concentration 0.1%) | activity ([9]; Concentration 0,2%) | activity ([9]; Concentration 0.1%) | activity ([10]; Concentration 0,2%) | activity ([10]; Concentration 0.1%) | activity ([11]; Concentration 0,2%) | activity ([11]; Concentration 0.1%) | activity ([12]; Concentration 0,2%) | activity ([12]; Concentration 0.1%)
43%: cases in which fine moist rales were heard ([13]; ultrasonic inhalations, physical examination)
41%: patients with positive effect after decamethoxine therapy ([13]; ultrasonic inhalations)
